In patent US20220370453A1 (Storm Therapeutics Ltd, priority 2019, published 2022) one finds IC50 data, which are given here for 27 compounds.

Test [1] deals with T1, BCDIN3D (Homo sapiens, UniProt Q7Z5W3).
T1 sequence (Q7Z5W3 1-292): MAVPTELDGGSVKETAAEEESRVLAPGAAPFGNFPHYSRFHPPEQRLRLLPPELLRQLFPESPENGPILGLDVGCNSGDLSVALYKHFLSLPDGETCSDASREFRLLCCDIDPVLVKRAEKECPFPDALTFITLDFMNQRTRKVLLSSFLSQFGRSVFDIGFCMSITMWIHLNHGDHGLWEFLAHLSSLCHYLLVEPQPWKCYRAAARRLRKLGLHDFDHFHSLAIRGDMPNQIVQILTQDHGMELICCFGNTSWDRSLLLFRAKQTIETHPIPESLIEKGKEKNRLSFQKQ
The test can be described thus: BCDIN3D InCellPulse thermal stability assay in transfected A549 cells. The test is classed as cell-based. The note with it: transiently transfected A549 cells, heat shock 58° C. 15 min. The procedure, abridged: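 A549 cells transiently expressing BCDIN3D N-terminally fused to ePL ProLabel tag, 1500 cells/well, pre-incubated 1 h at 37 °C with compound (0.6% DMSO). Heat shock 58 °C for 15 min; remaining soluble fusion detected by split β-galactosidase complementation luminescence.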

In test [2] the target is T1, BCDIN3D. The test can be described thus: BCDIN3D IC50 RFMS (RapidFire) assay with mini-helix. Format: biochemical. The note with it: mini-helix substrate 0.2 μM, SAM 6 μM, 25 nM enzyme. A digest of the protocol: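 25 nM enzyme preincubated 10 min at room temperature with compound (1% DMSO) in 25 mM Tris pH 8.0, 10 mM DTT, 1 mM EDTA, 0.03% BSA. Reaction started with 0.2 μM mini-helix plus 6 μM SAM, run 1 h at 37 °C, quenched with TCA; SAH product quantified by RapidFire MS against isotopic SAH standards.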

With `Cn1ncc2c(Nc3ccc(OC(F)(F)F)cc3)nc(NCC3(N)CC3)nc21` [Compound 2.32, 6-N-[(1-aminocyclopropyl)methyl]-1-methyl-4-N-[4-(trifluoromethoxy)phenyl]pyrazolo[3,4-d]pyrimidine-4,6-diamine], the IC50 in test [1] worked out at 0.815 µM; in test [2] it was 0.176 µM.

For `COc1ccc(Nc2nc(NCC3(N)CC3)nc3c2cnn3C)cc1` [Compound 2.33, 6-N-[(1-aminocyclopropyl)methyl]-4-N-(4-methoxyphenyl)-1-methylpyrazolo[3,4-d]pyrimidine-4,6-diamine], the IC50 was determined as 3.86 µM in test [1] and 0.327 µM in test [2].

For the compound `Cn1ncc2c(Nc3ccc(OC(F)F)cc3)nc(NCC3(N)CC3)nc21` [Compound 2.34, 6-N-[(1-aminocyclopropyl)methyl]-4-N-[4-(difluoromethoxy)phenyl]-1-methylpyrazolo[3,4-d]pyrimidine-4,6-diamine], the results for the IC50 in test [1] and in test [2] were 1.42 µM and 0.201 µM, respectively.

`Cn1ncc2c(Nc3cccc(Cl)c3)nc(NCC3(N)CC3)nc21` [Compound 2.35, 6-N-[(1-aminocyclopropyl)methyl]-4-N-(3-chlorophenyl)-1-methylpyrazolo[3,4-d]pyrimidine-4,6-diamine]: the IC50 amounted to 1.98 µM in test [1] and 0.26 µM in test [2].

As to `Cn1ncc2c(Nc3ccc(C(F)F)cc3)nc(NCC3(N)CC3)nc21` [Compound 2.36, 6-N-[(1-aminocyclopropyl)methyl]-4-N-[4-(difluoromethyl)phenyl]-1-methylpyrazolo[3,4-d]pyrimidine-4,6-diamine], the values for the IC50 in test [1] and in test [2] were 1.98 µM and 0.138 µM, respectively.

On to `Cn1ncc2c(NC34CC(C#N)(C3)C4)nc(NCC3(N)CC3)nc21` [Compound 2.37, 3-[[6-[(1-aminocyclopropyl)methylamino]-1-methylpyrazolo[3,4-d]pyrimidin-4-yl]amino]bicyclo[1.1.1]pentane-1-carbonitrile], for which the IC50 amounted to 16.5 µM in test [1] and 8.6 µM in test [2].

As for `Cn1ncc2c(Nc3ccc(F)c(F)c3)nc(NCC3(N)CC3)nc21` [Compound 2.39, 6-N-[(1-aminocyclopropyl)methyl]-4-N-(3,4-difluorophenyl)-1-methylpyrazolo[3,4-d]pyrimidine-4,6-diamine], the 50% inhibitory concentration (IC50) in test [1] is 2.13 µM; in test [2] it was 0.35 µM.

As to `Cn1ncc2c(Nc3ccc(Cl)c(Cl)c3)nc(NCC3(N)CC3)nc21` [Compound 2.40, 6-N-[(1-aminocyclopropyl)methyl]-4-N-(3,4-dichlorophenyl)-1-methylpyrazolo[3,4-d]pyrimidine-4,6-diamine], the values for the IC50 in test [1] and in test [2] were 0.234 µM and 0.0333 µM, respectively.

In the case of `COc1cc(Nc2nc(NCC3(N)CC3)nc3c2cnn3C)ccc1Cl` [Compound 2.41, 6-N-[(1-aminocyclopropyl)methyl]-4-N-(4-chloro-3-methoxyphenyl)-1-methylpyrazolo[3,4-d]pyrimidine-4,6-diamine], the IC50 in test [1] turned out to be 1.61 µM; in test [2] it was 0.211 µM.

For the compound `COc1ccc(CNc2nc(NCC3(N)CC3)nc3c2cnn3C)c(OC)c1` [Compound 2.42, N6-[(1-aminocyclopropyl)methyl]-N4-[(2,4-dimethoxyphenyl)methyl]-1-methyl-pyrazolo[3,4-d]pyrimidine-4,6-diamine], the results for the IC50 in test [1] and in test [2] were 2.99 µM and 1.26 µM, respectively.

In the case of `Cn1ncc2c(NC34CC(F)(C3)C4)nc(NCC3(N)CC3)nc21` [Compound 2.43, N6-[(1-aminocyclopropyl)methyl]-N4-{3-fluorobicyclo[1.1.1]pentan-1-yl}-1-methyl-1H-pyrazolo[3,4-d]pyrimidine-4,6-diamine], the IC50 amounted to 5.94 µM in test [1] and 2.79 µM in test [2].

As to `Cn1ncc2c(Nc3ccc(C(F)(F)F)cc3)nc(NCC3(N)CC3)nc21` [Compound 2.44, 6-N-[(1-aminocyclopropyl)methyl]-1-methyl-4-N-[4-(trifluoromethyl)phenyl]pyrazolo[3,4-d]pyrimidine-4,6-diamine], the values for the IC50 in test [1] and in test [2] were 0.329 µM and 0.0565 µM, respectively.

`Cn1ncc2c(Nc3ccc(C(F)(F)F)nc3)nc(NCC3(N)CC3)nc21` [Compound 2.45, 6-N-[(1-aminocyclopropyl)methyl]-1-methyl-4-N-[6-(trifluoromethyl)pyridin-3-yl]pyrazolo[3,4-d]pyrimidine-4,6-diamine]: the values for the IC50 in test [1] and in test [2] were 2.47 µM and 0.424 µM, respectively.

Regarding `Cn1ncc2c(Nc3ccc(Cl)cn3)nc(NCC3(N)CC3)nc21` [Compound 2.46, 6-N-[(1-aminocyclopropyl)methyl]-4-N-(5-chloropyridin-2-yl)-1-methylpyrazolo[3,4-d]pyrimidine-4,6-diamine], the IC50 in test [1] was found to be 6.53 µM; in test [2] it was 2.1 µM.

As to `Cn1ncc2c(Nc3cnc(C(F)(F)F)cn3)nc(NCC3(N)CC3)nc21` [Compound 2.47, N6-[(1-aminocyclopropyl)methyl]-1-methyl-N4-[5-(trifluoromethyl)pyrazin-2-yl]pyrazolo[3,4-d]pyrimidine-4,6-diamine], the IC50 in test [1] came to 8.3 µM; in test [2], 4.52 µM.

On to `CCn1ncc2c(Nc3ccc(C(F)(F)F)cc3)nc(NCC3(N)CC3)nc21` [Compound 2.48, 6-N-[(1-aminocyclopropyl)methyl]-1-ethyl-4-N-[4-(trifluoromethyl)phenyl]pyrazolo[3,4-d]pyrimidine-4,6-diamine], for which the IC50 in test [1] stood at 2.43 µM; in test [2], 1.08 µM.

Consider `[2H]C([2H])([2H])n1ncc2c(Nc3ccc(C(F)(F)F)cc3)nc(NCC3(N)CC3)nc21` [Compound 2.49, N6-[(1-aminocyclopropyl)methyl]-1-(trideuteriomethyl)-N4-[4-(trifluoromethyl)phenyl]pyrazolo[3,4-d]pyrimidine-4,6-diamine], for which the figures for the IC50 in test [1] and in test [2] were 0.379 µM and 0.05 µM, respectively.

As for `[2H]C([2H])([2H])n1ncc2c(Nc3ccc(C(F)(F)F)nc3)nc(NCC3(N)CC3)nc21` [Compound 2.50, N6-[(1-aminocyclopropyl)methyl]-1-(trideuteriomethyl)-N4-[6-(trifluoromethyl)-3-pyridyl]pyrazolo[3,4-d]pyrimidine-4,6-diamine], the IC50 stood at 2.98 µM in test [1] and 0.344 µM in test [2].

`C#CCCC1(CCOc2ccc(CNc3nc(NCC4(N)CC4)nc4c3cnn4C)cc2Cl)N=N1` [Compound 2.51, 6-N-[(1-aminocyclopropyl)methyl]-4-N-[[4-[2-(3-but-3-ynyldiazirin-3-yl)ethoxy]-3-chlorophenyl]methyl]-1-methylpyrazolo[3,4-d]pyrimidine-4,6-diamine]: the results for the IC50 in test [1] and in test [2] were 0.252 µM and 0.179 µM, respectively.

Regarding `Cn1ncc2c(Nc3ccc(C(F)(F)F)cc3)cc(NCC3(N)CC3)nc21` [Compound 2.52, N6-[(1-Aminocyclopropyl)methyl]-1-methyl-N4-[4-(trifluoromethyl)phenyl]pyrazolo[3,4-b]pyridine-4,6-diamine], the figures for the IC50 in test [1] and in test [2] were 8.89 µM and 6.9 µM, respectively.

On to `Cc1ccc(CNc2nc(NCC(C)N)nc3c2cnn3C)cc1Cl` (stereo not drawn) [Compound 3.01, 6-N-(2-aminopropyl)-4-N-[(3-chloro-4-methylphenyl)methyl]-1-methylpyrazolo[3,4-d]pyrimidine-4,6-diamine], for which the IC50 is 2.28 µM in test [1] and 3.32 µM in test [2].

As to `Cc1ccc(CNc2nc(NC[C@@H](C)N)nc3c2cnn3C)cc1Cl` [Compound 3.04, 6-N-[(2R)-2-aminopropyl]-4-N-[(3-chloro-4-methylphenyl)methyl]-1-methylpyrazolo[3,4-d]pyrimidine-4,6-diamine], the IC50 turned out to be 1.45 µM in test [1] and 0.665 µM in test [2].

Turning to `CC[C@@H](CN)Nc1nc(NCc2ccc(C)c(Cl)c2)c2cnn(C)c2n1` [Compound 3.05], the IC50 in test [1] and in test [2] was 1.44 µM each time.

`CC[C@H](N)CNc1nc(NCc2ccc(C)c(Cl)c2)c2cnn(C)c2n1` [Compound 3.06, 6-N-[(2S)-2-aminobutyl]-4-N-[(3-chloro-4-methylphenyl)methyl]-1-methylpyrazolo[3,4-d]pyrimidine-4,6-diamine]: the IC50 in test [1] came out at 4.42 µM; in test [2], 3.42 µM.

For the compound `CC[C@@H](N)CNc1nc(NCc2ccc(C)c(Cl)c2)c2cnn(C)c2n1` [Compound 3.07, 6-N-[(2R)-2-aminobutyl]-4-N-[(3-chloro-4-methylphenyl)methyl]-1-methylpyrazolo[3,4-d]pyrimidine-4,6-diamine], the results for the IC50 in test [1] and in test [2] were 0.664 µM and 0.299 µM, respectively.

For the compound `Cn1ncc2c(Nc3ccc(C(F)(F)F)cc3)nc(NCC3(N)CCC3)nc21` [Compound 3.08, N6-[(1-aminocyclobutyl)methyl]-1-methyl-N4-[4-(trifluoromethyl)phenyl]pyrazolo[3,4-d]pyrimidine-4,6-diamine], the IC50 in test [1] is 0.259 µM; in test [2], 0.0505 µM.

With `Cn1ncc2c(Nc3ccc(OC(F)F)cc3)nc(NCC3(N)CCC3)nc21` [Compound 3.09, N6-[(1-aminocyclobutyl)methyl]-N4-[4-(difluoromethoxy)phenyl]-1-methyl-pyrazolo[3,4-d]pyrimidine-4,6-diamine], the IC50 was 0.503 µM in test [1] and 0.201 µM in test [2].

One may read the IC50 as the concentration that gives 50% inhibition.
